As a reminder, the Ki is a dissociation constant, usually derived from enzyme kinetics or from competition with a known ligand.

Where a name gives a salt, the structure may show the parent alone.

T2 sequence (P20309 whole entry): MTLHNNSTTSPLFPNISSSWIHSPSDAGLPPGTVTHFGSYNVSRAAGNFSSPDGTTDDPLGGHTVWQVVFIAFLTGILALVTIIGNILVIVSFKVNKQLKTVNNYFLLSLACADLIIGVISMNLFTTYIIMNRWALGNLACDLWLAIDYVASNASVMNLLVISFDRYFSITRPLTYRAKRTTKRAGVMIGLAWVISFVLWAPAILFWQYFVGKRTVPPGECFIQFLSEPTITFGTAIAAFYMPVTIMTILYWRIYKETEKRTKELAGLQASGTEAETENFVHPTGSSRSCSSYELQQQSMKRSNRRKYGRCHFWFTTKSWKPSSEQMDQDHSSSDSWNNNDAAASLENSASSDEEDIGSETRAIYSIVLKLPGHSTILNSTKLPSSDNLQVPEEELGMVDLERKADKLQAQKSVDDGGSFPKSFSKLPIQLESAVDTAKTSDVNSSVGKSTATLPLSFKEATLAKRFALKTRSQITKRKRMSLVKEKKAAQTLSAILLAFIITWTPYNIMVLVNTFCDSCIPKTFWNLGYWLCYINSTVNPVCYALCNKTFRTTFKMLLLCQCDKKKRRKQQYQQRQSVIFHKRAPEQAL

The target in one test is T1, human muscarinic receptors (M3) (Homo sapiens, UniProt P20309).
T1 construct: purchased
T1 sequence (P20309 whole entry): as above
As to the kind of experiment: Muscarinic receptor radioligand binding assay, [3H]-NMS, filter plate format. The settings on record: M3, filter plate assay; read-out: Ki value in the filter plate assay. The procedure:
Radioligand binding studies utilising [^3H]-N-methyl scopolamine ([^3H]-NMS) and commercially available cell membranes expressing the human muscarinic receptors (M2 and M3) were used to assess the affinity of muscarinic antagonists for M2 and M3 receptors. Membranes in TRIS buffer were incubated in 96-well plates with [^3H]-NMS and M3 antagonist at various concentrations for 3 hours. Membranes and bound radioligand were then harvested by filtration and allowed to dry overnight. Scintillation fluid was then added and the bound radioligand counted using a Canberra Packard Topcount scintillation counter
For `OC(c1ccccc1)(c1ncc(C[N+]23CCC(CC2)C(Oc2ccccc2)C3)o1)C1CCCCC1` (single isomer, unassigned; enantiomer 2) [Example 4, 1-[2-[(RS)—(Cyclohexyl-hydroxy-phenyl-methyl)]-oxazol-5-ylmethyl]-3-phenoxy-1-azonia-bicyclo[2.2.2]octane bromide, enantiomer 2], the Ki stood at 2 nM.

Still in this test, the particulars now being: filter plate format; read-out: M3 Ki (Filter plate format).
Turning to `OC(c1ccccc1)(c1ncc(C[N+]23CCC(CC2)C(Oc2ccccc2)C3)o1)C1CCCCC1` (single isomer, unassigned; enantiomer 2) [Example 4, 1-[2-[(RS)—(Cyclohexyl-hydroxy-phenyl-methyl)]-oxazol-5-ylmethyl]-3-phenoxy-1-azonia-bicyclo[2.2.2]octane bromide, enantiomer 2], the Ki was less than 5 nM.

The next test has as its target T2, Recombinant human M3 receptor (Homo sapiens, UniProt P20309).
T2 construct: expressed in transfected cells; host or cells: CHO-K1 cells (membranes)
As to the kind of experiment: biochemical. It is filed as binding. The following applies: M3, SPA format assay; read-out: Ki in the SPA format assay.
Regarding `O[C@](c1ccccc1)(c1ncc(C[N+]23CCC(CC2)[C@@H](Oc2ccc(F)cc2)C3)o1)C1CCCCC1` [Example 66, (R)-1-[2-((R)—Cyclohexyl-hydroxy-phenyl-methyl)-oxazol-5-ylmethyl]-3-(4-fluoro-phenoxy)-1-azonia-bicyclo[2.2.2]octane; bromide], the Ki was found to be 0.09 nM.

The same test, now with this note: SPA format; read-out: M3 Ki (SPA format).
`OC(c1ccccc1)(c1ccccc1)c1ncc(C[N+]23CCC(CC2)C(SCc2ccccc2)C3)o1` (centres unmarked) [Example 39, 3-Benzylsulfanyl-1-[2-(hydroxy-diphenyl-methyl)-oxazol-5-ylmethyl]-1-azonia-bicyclo[2.2.2]octane; bromide,]: the Ki was in the range of 5 to 20 nM.
Consider `OC(c1ccccc1)(c1noc(C[N+]23CCC(CC2)[C@@H](OCc2ccccc2)C3)n1)C1CCCCC1` (single isomer, unassigned) [Example 30, formate], for which the Ki is less than 5 nM.
On to `O[C@](c1ccccc1)(c1ncc(C[N+]23CCC(CC2)[C@@H](CSc2ccccc2)C3)o1)C1CCCCC1` [Example 100, (R)-1-[2-((R)—Cyclohexyl-hydroxy-phenyl-methyl)-oxazol-5-ylmethyl]-3-phenylsulfanylmethyl-1-azonia-bicyclo[2.2.2]octane; bromide], for which the Ki was less than 5 nM.
On the same count and under the same terms, the same measure for `OC(c1ccccc1)(c1cc(C[N+]23CCC(CC2)[C@@H](OCc2ccc(F)cc2)C3)on1)C1CCCCC1` (single isomer, unassigned) [Example 54]: less than 5 nM; for `OC(c1ccccc1)(c1ccccc1)c1ncc(C[N+]23CCC(CC2)[C@@H](Oc2ccc4c(c2)OCO4)C3)o1` [Example 79, (R)-3-(Benzo[1,3]dioxal-5-yloxy)-1-[2-(hydroxy-diphenyl-methyl)-oxazol-5-ylmethyl]-1-azonia-bicyclo[2.2.2]octane; bromide]: less than 5 nM.
Regarding `OC(c1ccccc1)(c1cc(C[N+]23CCC(CC2)[C@@H](Oc2cccc(F)c2)C3)on1)C1CCCCC1` (single isomer, unassigned) [Example 101], the inhibition constant (Ki) was less than 5 nM.
Turning to `O[C@](c1ccccc1)(c1ncc(C[N+]23CCC(CC2)[C@@H](Oc2ccc(F)cc2)C3)o1)C1CCCCC1` [Example 66, (R)-1-[2-((R)—Cyclohexyl-hydroxy-phenyl-methyl)-oxazol-5-ylmethyl]-3-(4-fluoro-phenoxy)-1-azonia-bicyclo[2.2.2]octane; bromide], the Ki is less than 5 nM.
For `O[C@](c1ccccc1)(c1ncc(C[N+]23CCC(CC2)C(Cc2ccccc2)C3)o1)C1CCCCC1` (stereo partly drawn) [Example 61, 3-benzyl-1-[2-((R)-cyclohexyl-hydroxy-phenyl-methyl)-oxazol-5-ylmethyl]-1-azonia-bicyclo[2.2.2]octane; formate], the Ki was less than 5 nM.
Take `O[C@](c1ccccc1)(c1ncc(C[N+]23CCC(CC2)[C@@H](OCc2ccc(C(F)(F)F)cc2)C3)o1)C1CCCCC1` [Example 33, (R)-1-[2-((R)—Cyclohexyl-hydroxy-phenyl-methyl)-oxazol-5-ylmethyl]-3-(4-trifluoromethyl-benzyloxy)-1-azonia-bicyclo[2.2.2]octane; bromide]: the inhibitory constant (Ki) was less than 5 nM.
For the molecule `OC(c1ccccc1)(c1ccccc1)c1ncc(C[N+]23CCC(CC2)[C@@H](Oc2ccc(F)c(Cl)c2)C3)o1` [Example 76, (R)-3-(3-chloro-4-fluoro-phenoxy)-1-[2-(hydroxy-diphenyl-methyl)-oxazol-5-ylmethyl]-1-azonia-bicyclo[2.2.2]octane; bromide], the inhibition constant (Ki) was less than 5 nM.
Turning to `OC(c1ccccc1)(c1ncc(C[N+]23CCC(CC2)C(CSc2ccccc2)C3)o1)C1CCC1` (single isomer, unassigned) [Example 122], the inhibitory constant (Ki) was less than 5 nM.
With `O[C@](c1ccccc1)(c1nnc(C[N+]23CCC(CC2)[C@@H](Oc2ccc(F)cc2)C3)o1)C1CCCCC1` [Example 142, (R)-1-[5-((R)—Cyclohexyl-hydroxy-phenyl-methyl)-[1,3,4]oxadiazol-2-ylmethyl]-3-(4-fluoro-phenoxy)-1-azonia-bicyclo[2.2.2]octane; bromide], the Ki was less than 5 nM.
The same measure, in the same setting: under `OC(c1ccccc1)(c1ccccc1)c1ncc(C[N+]23CCC(CC2)C(COc2cccc(F)c2)C3)o1` (single isomer, unassigned) [Example 83, 3-(3-Fluoro-phenoxymethyl)-1-[2-(hydroxy-diphenyl-methyl)-oxazol-5-ylmethyl]-1-azonia-bicyclo[2.2.2]octane; bromide] stands 5 to 20 nM; under `Cc1ccc(O[C@H]2C[N+]3(Cc4nc(C(O)(c5ccccc5)c5ccccc5)no4)CCC2CC3)cc1Cl` [Example 104, (R)-3-(3-Chloro-4-methyl-phenoxy)-1-[3-(hydroxy-diphenyl-methyl)-[1,2,4]oxadiazol-5-ylmethyl]-1-azonia-bicyclo[2.2.2]octane; chloride], less than 5 nM; under `O[C@](c1ccccc1)(c1ncc(C[N+]23CCC(COCc4ccccc4)(CC2)CC3)o1)C1CCCCC1` [Example 47, 4-Benzyloxymethyl-1-[2-((R)-cyclohexyl-hydroxy-phenyl-methyl)-oxazol-5-ylmethyl]-1-azonia-bicyclo[2.2.2]octane; bromide], greater than 20 nM.
In the case of `O[C@](c1ccccc1)(c1ncc(C[N+]23CCC(CC2)C(c2ccccc2)C3)o1)C1CCCCC1` (stereo partly drawn) [Example 88, 1-[2-((R)—Cyclohexyl-hydroxy-phenyl-methyl)-oxazol-5-ylmethyl]-3-phenyl-1-azonia-bicyclo[2.2.2]octane; bromide], the inhibitory constant (Ki) was 5 to 20 nM.
Take `O[C@](c1ccccc1)(c1ncc(C[N+]23CCC(CC2)[C@@H](OCc2ccc(Cl)cc2)C3)o1)C1CCCC1` [Example 44, (R)-3-(4-chloro-benzyloxy)-1-[2-((R)-cyclopentyl-hydroxy-phenyl-methyl)-oxazol-5-ylmethyl]-1-azonia-bicyclo[2.2.2]octane; formate]: the inhibitory constant (Ki) was less than 5 nM.
As to `OC(c1ccccc1)(c1ccccc1)c1noc(C[N+]23CCC(CC2)[C@@H](SC2CCCCC2)C3)n1` [Example 138, (R)-3-Cyclohexylsulfanyl-1-[3-(hydroxy-diphenyl-methyl)-[1,2,4]oxadiazol-5-ylmethyl]-1-azonia-bicyclo[2.2.2]octane; chloride], the inhibition constant Ki was less than 5 nM.
With `C=CCOCC1C[N+]2(Cc3cnc([C@](O)(c4ccccc4)C4CCCCC4)o3)CCC1CC2` (single isomer, unassigned) [Example 90, formate], the Ki lay within 5 to 20 nM.
On to `OC(c1ccccc1)(c1cc(C[N+]23CCC(CC2)[C@@H](Oc2ccc(F)cc2)C3)on1)C1CCCCC1` (single isomer, unassigned) [Example 143], for which the Ki is less than 5 nM.
Turning to `OC(c1ccccc1)(c1ccccc1)c1noc(C[N+]23CCC(CC2)[C@@H](OCc2ccc(F)cc2)C3)n1` [Example 141, (R)-3-(4-Fluoro-benzyloxy)-1-[3-(hydroxy-diphenyl-methyl)-[1,2,4]oxadiazol-5-ylmethyl]-1-azonia-bicyclo[2.2.2]octane; chloride], the Ki is less than 5 nM.
As for `Cc1ccc(CO[C@H]2C[N+]3(Cc4cnc([C@](O)(c5ccccc5)C5CCCCC5)o4)CCC2CC3)cc1` [Example 34, (R)-1-[2-((R)—Cyclohexyl-hydroxy-phenyl-methyl)-oxazol-5-ylmethyl]-3-(4-methyl-benzyloxy)-1-azonia-bicyclo[2.2.2]octane; bromide], the inhibitory constant (Ki) is less than 5 nM.
On to `O[C@@](c1ccccc1)(c1ncc(C[N+]23CCC(CC2)[C@H](Oc2ccccc2)C3)o1)C1CCCCC1` [Example 6, (S)-1-[2-((S)—Cyclohexyl-hydroxy-phenyl-methyl)-oxazol-5-ylmethyl]-3-phenoxy-1-azonia-bicyclo[2.2.2]octane bromide], for which the inhibitory constant (Ki) is greater than 20 nM.
On to `O[C@](c1ccccc1)(c1nnc(C[N+]23CCC(CC2)[C@@H](OCc2ccccc2)C3)o1)C1CCCCC1` [Example 56, (R)-3-benzyloxy-1-[5-((R)-cyclohexyl-hydroxy-phenyl-methyl)-[1,3,4]oxadiazol-2-ylmethyl]-1-azonia-bicyclo[2.2.2]octane; formate], for which the inhibitory constant (Ki) is less than 5 nM.
On the same count and under the same terms, under `OC(c1ccccc1)(c1ccccc1)c1ncc(C[N+]23CCC(CC2)[C@@H](Sc2ccc(F)c(F)c2)C3)o1` [Example 99, (R)-3-(3,4-Difluoro-phenylsulfanyl)-1-[2-(hydroxy-diphenyl-methyl)-oxazol-5-ylmethyl]-1-azonia-bicyclo[2.2.2]octane; bromide] stands less than 5 nM; under `O[C@@](c1ccccc1)(c1ncc(C[N+]23CCC(CC2)[C@@H](Oc2ccccc2)C3)o1)C1CCCCC1` [Example 7, (R)-1-[2-((S)—Cyclohexyl-hydroxy-phenyl-methyl)-oxazol-5-ylmethyl]-3-phenoxy-1-azonia-bicyclo[2.2.2]octane bromide], 5 to 20 nM.
Regarding `C=CCO[C@H]1C[N+]2(Cc3cnc([C@](O)(c4ccccc4)C4CCCCC4)o3)CCC1CC2` [Example 51, (R)-3-allyloxy-1-[2-((R)-cyclohexyl-hydroxy-phenyl-methyl)-oxazol-5-ylmethyl]-1-azonia-bicyclo[2.2.2]octane; formate], the inhibitory constant (Ki) is less than 5 nM.
For the molecule `OC(c1ccccc1)(c1ccccc1)c1ncc(C[N+]23CCC(CC2)[C@@H](Oc2ccc(F)cc2)C3)o1` [Example 72, (R)-3-(4-Fluoro-phenoxy)-1-[2-(hydroxy-diphenyl-methyl)-oxazol-5-ylmethyl]-1-azonia-bicyclo[2.2.2]octane; bromide], the Ki is less than 5 nM.
Still for that read-out and setting: under `O[C@@](c1ccccc1)(c1ncc(C[N+]23CCC(CC2)CC3)o1)C1CCCCC1` [Example 5, 1-[2-((S))-Cyclohexyl-hydroxy-phenyl-methyl)-oxazol-5-ylmethyl]-1-azonia-bicyclo[2.2.2]octane bromide] stands less than 5 nM.

The record behind these values is patent US20100056565A1, “Heterocyclic Derivatives as M3 Muscarinic Receptors” (priority 2007, published 2010).
